Earlier results, collected in US20220211725A1, “Pharmaceutical Composition Comprising Venetoclax” (Alembic Pharmaceuticals Limited, priority 2019, published 2022).

Conditions: background description

aqueous solubility: very low
SMILES: CC1(C)CCC(CN2CCN(c3ccc(C(=O)NS(=O)(=O)c4ccc(NCC5CCOCC5)c([N+](=O)[O-])c4)c(Oc4cnc5[nH]ccc5c4)c3)CC2)=C(c2ccc(Cl)cc2)C1 [Venetoclax]
